Each structure is given as a SMILES string. Where two headings read alike, the source gives them in different places. Where only a bound is given, the exact number is not on record here.

Experiment [1] deals with human lung cancer cells (A-549). As to the kind of experiment: MTT tumor cell proliferation inhibition test, A-549. Format: cell-based. The following applies: read-out: Half Inhibitory Concentration IC50 A549. As for the experimental part: (§1) The compounds of the present invention were subjected to tumor cell proliferation inhibition test, and conventional MTT method was used.
(§2) Cell lines: human hepatoma cells (HepG2), human lung cancer cells (A-549), human gastric cancer cells (SGC-7901). The culture medium was DMEM+15% NBS+double antibody.
(§3) Sample solution preparation: after dissolving with DMSO (Merck), PBS (−) was added to obtain 100 μmol/L solution or homogeneous suspension. The solution was diluted with PBS (−) in DMSO to a final concentration of 0.1, 1, 10, 20, 40, 60, 80, 100 μmol/L.
(§4) Gossypol was used as control solution, prepared under the same condition.
(§5) Cell culture: adherent growth Tumor cells were cultured in 1640 medium containing 10% inactivated neonatal bovine serum and penicillin, streptomycin (1 million U/L), placed in carbon dioxide incubator at 37° C., 5% CO2, and saturated humidity. Cells were treated serially passaged 2-3 times. The first culture was washed with PBS 2 times, and digested with trypsin. Fresh culture medium was added evenly, cells were adjusted to a appropriate concentration and transferred into a new culture flask. Cell in an exponential phase were chosen for the tests.
(§6) MTT Assay for Cell Viability and IC50 Determination:
(§7) Experimental Principle: Living cells mitochondria in the dehydrogenase can reduce yellow MTT to water-insoluble blue-violet product MT (MTT formazan), deposited in the cells. The amount of production is proportional to the number of living cells. […] DMSO can dissolve blue violet crystals, and the color depth is proportional to the amount contained, so the absorbance measured by the microplate reader can reflect the cell viability.
(§8) Methods: The exponential phase cells were digested and counted and seeded in 96-well plates at a density of 2×10^4/mL at 100 μl per well. After 24 hours of incubation, the cells to be tested were treated with 0.1, 1, 10, 20, 40, 60, 80, 100 μmol/L of the compounds. Each experimental group had 5 wells in each concentration, and the culture medium containing 0.4% DMSO was used as control. After 48 hours, the supernatant was discarded, and 100 μl of MTT ((2-(4,5-dimethyl-2-thiazolyl)-3,5-diphenyl-2H-[…]) (1 mg/mL) was added to each well. After another 4 hours, the supernatant was discarded, and 100 μl of DMSO was added to each well. After mixing, the absorbance was measured at 570 nm using a microplate reader. An IC50 calculation software was used to determine the half inhibitory concentration (IC50).

For experiment [2], the system named is human gastric cancer cells (SGC-7901). In words: MTT tumor cell proliferation inhibition test, SGC-7901. The following applies: read-out: Half Inhibitory Concentration IC50 SGC-7901. Format: cell-based. On the procedure:
as §1, §2, §3, §4, §5, §6, §7, §8

The test system of experiment [3] is human hepatoma cells (HepG2). In words: MTT tumor cell proliferation inhibition test, HepG2. As to conditions: read-out: Half Inhibitory Concentration IC50 HepG2. The experiment is classed as cell-based. As for the experimental part:
as §1, §2, §3, §4, §5, §6, §7, §8

For experiment [4], the system named is three cell lines tested (HepG2, A-549, SGC-7901). As to the kind of experiment: MTT tumor cell proliferation inhibition test, summary over the three cell lines. The experiment is classed as cell-based, human. On the procedure:
as §1, §2, §3, §4
Cell culture: adherent growth Tumor cells were cultured in 1640 medium containing 10% inactivated neonatal bovine serum and penicillin, streptomycin (1 million U/L), placed in carbon dioxide incubator at 37° C., 5% CO2, and saturated humidity. Cells were treated serially passaged 2-3 times. The first culture was washed with PBS 2 times, and digested with trypsin. Fresh culture medium was added evenly, cells were adjusted to a appropriate concentration and transferred into a new culture flask. […]
Experimental Principle: Living cells mitochondria in the dehydrogenase can reduce yellow MTT to water-insoluble blue-violet product MT (MTT formazan), deposited in the cells. […] DMSO can dissolve blue violet crystals, and the color depth is proportional to the amount contained, so the absorbance measured by the microplate reader can reflect the cell viability.
Methods: The exponential phase cells were digested and counted and seeded in 96-well plates at a density of 2×10^4/mL at 100 μl per well. […] After 48 hours, the supernatant was discarded, and 100 μl of MTT ((2-(4,5-dimethyl-2-thiazolyl)-3,5-diphenyl-2H-[…]) (1 mg/mL) was added to each well. After another 4 hours, the supernatant was discarded, and 100 μl of DMSO was added to each well. After mixing, the absorbance was measured at 570 nm using a microplate reader. An IC50 calculation software was used to determine the half inhibitory concentration (IC50).

The mark [5] stands for this setting: A549 cells, MTT, 48 hours treatment.
[6] abbreviates: SGC-7901 cells, MTT, 48 hours treatment.
Setting [7] is: HepG2 cells, MTT, 48 hours treatment.

For `Cc1cc2c(c(O)c1-c1c(C)cc3c(c1O)/C(=C/c1c(O)c4ccc(O)cc4oc1=O)C(=O)C(O)=C3C(C)C)/C(=C/c1c(O)c3ccc(O)cc3oc1=O)C(=O)C(O)=C2C(C)C` [Compound B-3, (8Z,8′Z)-8,8′-bis((4,7-dihydroxy-2-oxo-2H-chromen-3-yl)methylene)-1,1′,6,6′-tetrahydroxy-5,5′-diisopropyl-3,3′-dimethyl-[2,2′-binaphthalene]-7,7′(8H,8′H)-dione], the IC50 in experiment [1] (setting [5]) came to 28.6 ± 0.64 µM; in experiment [2] (setting [6]), 33.2 ± 1.01 µM; in experiment [3] (setting [7]), 16.7 ± 0.45 µM.
Turning to `Cc1cc2c(C(C)C)c(O)c(O)c(C=O)c2c(O)c1-c1c(C)cc2c(C(C)C)c(O)c(O)c(C=O)c2c1O` [Gossypol], the IC50 was 26.3 ± 1.89 µM in experiment [1] (A549, 48 h); 43.6 ± 2.03 µM in experiment [2] (SGC-7901, 48 h); 18.4 ± 0.71 µM in experiment [3] (HepG2, 48 h).
On to `Cc1cc2c(c(O)c1-c1c(C)cc3c(c1O)/C(=C/c1c(O)c4cc(Cl)ccc4oc1=O)C(=O)C(O)=C3C(C)C)/C(=C/c1c(O)c3cc(Cl)ccc3oc1=O)C(=O)C(O)=C2C(C)C` [Compound B-2, (8Z,8′Z)-8,8′-bis((6-chloro-4-hydroxy-2-oxo-2H-chromen-3-yl)methylene)-1,1′,6,6′-tetrahydroxy-5,5′-diisopropyl-3,3′-dimethyl-[2,2′-binaphthalene]-7,7′(8H,8′H)-dione], for which the figures for the IC50 in experiment [1] (setting [5]), in experiment [2] (setting [6]) and in experiment [3] (setting [7]) were 68.5 ± 2.44 µM, more than 100 µM and more than 100 µM, respectively.
`Cc1cc(C)c2c(O)c(/C=C3\C(=O)C(O)=C(C(C)C)c4cc(C)c(-c5c(C)cc6c(c5O)/C(=C/c5c(O)c7c(C)cc(C)cc7oc5=O)C(=O)C(O)=C6C(C)C)c(O)c43)c(=O)oc2c1` [Compound B-6, (8Z,8′Z)-1,1′,6,6′-tetrahydroxy-8,8′-bis((4-hydroxy-5,7-dimethyl-2-oxo-2H-chromen-3-yl)methylene)-5,5′-diisopropyl-3,3′-dimethyl-[2,2′-binaphthalene]-7,7′(8H,8′H)-dione]: the values for the IC50 in experiment [1] (setting [5]), in experiment [2] (setting [6]) and in experiment [3] (setting [7]) were more than 100 µM, more than 100 µM and 58.6 ± 3.23 µM, respectively.
Regarding `Cc1cc2c(c(O)c1-c1c(C)cc3c(C(C)C)c(O)c(O)c(C=O)c3c1O)/C(=C/c1c(O)c3ccccc3oc1=O)C(=O)C(O)=C2C(C)C` [Compound A-1, (Z)-1,1′,6,6′,7-pentahydroxy-8′-((4-hydroxy-2-oxo-2H-chromen-3-yl)methylene)-5,5′-diisopropyl-3,3′-dimethyl-7′-oxo-7′,8′-dihydro-[2,2′-binaphthalene]-8-carbaldehyde], the figures for the IC50 in experiment [1] (setting [5]), in experiment [2] (setting [6]) and in experiment [3] (setting [7]) were 17.1 ± 0.72 µM, 21.3 ± 1.34 µM and 10.7 ± 0.65 µM, respectively. Also, the “antitumor activities (verbal summary)” value in experiment [4] is given as “best antitumor activities”.
For `Cc1cc2c(c(O)c1-c1c(C)cc3c(C(C)C)c(O)c(O)c(C=O)c3c1O)/C(=C/c1c(O)c3c(O)cc(O)cc3oc1=O)C(=O)C(O)=C2C(C)C` [Compound A-5, (Z)-1,1′,6,6′,7-pentahydroxy-5,5′-diisopropyl-3,3′-dimethyl-7′-oxo-8′-((4,5,7-trihydroxy-2-oxo-2H-chromen-3-yl)methylene)-7′,8′-dihydro-[2,2′-binaphthalene]-8-carbaldehyde], the IC50 in experiment [1] (setting [5]) was more than 100 µM; in experiment [2] (setting [6]) it was 88.8 ± 3.02 µM; in experiment [3] (setting [7]), more than 100 µM.
For the molecule `Cc1cc2c(c(O)c1-c1c(C)cc3c(C(C)C)c(O)c(O)c(C=O)c3c1O)/C(=C/c1c(O)c3cc(Cl)ccc3oc1=O)C(=O)C(O)=C2C(C)C` [Compound A-2, (Z)-8′-((6-chloro-4-hydroxy-2-oxo-2H-chromen-3-yl)methylene)-1,1′,6,6′,7-pentahydroxy-5,5′-diisopropyl-3,3′-dimethyl-7′-oxo-7′,8′-dihydro-[2,2′-binaphthalene]-8-carbaldehyde], the IC50 in experiment [1] (setting [5]), in experiment [2] (setting [6]) and in experiment [3] (setting [7]) was more than 100 µM throughout.
For `Cc1cc2c(c(O)c1-c1c(C)cc3c(C(C)C)c(O)c(O)c(C=O)c3c1O)/C(=C/c1c(O)c3ccc(O)cc3oc1=O)C(=O)C(O)=C2C(C)C` [Compound A-3, (Z)-8′-((4,7-dihydroxy-2-oxo-2H-chromen-3-yl)methylene)-1,1′,6,6′,7-pentahydroxy-5,5′-diisopropyl-3,3′-dimethyl-7′-oxo-7′,8′-dihydro-[2,2′-binaphthalene]-8-carbaldehyde], the IC50 was found to be 26.7 ± 1.12 µM in experiment [1] (setting [5]), 30.7 ± 1.31 µM in experiment [2] (setting [6]) and 17.8 ± 0.95 µM in experiment [3] (setting [7]). Moreover, in experiment [4], the “antitumor activities (verbal summary)” value was “good antitumor activities”.
On to `Cc1cc2c(c(O)c1-c1c(C)cc3c(c1O)/C(=C/c1c(O)c4c(O)cc(O)cc4oc1=O)C(=O)C(O)=C3C(C)C)/C(=C/c1c(O)c3c(O)cc(O)cc3oc1=O)C(=O)C(O)=C2C(C)C` [Compound B-5, (8Z,8′Z)-1,1′,6,6′-tetrahydroxy-5,5′-diisopropyl-3,3′-dimethyl-8,8′-bis((4,5,7-trihydroxy-2-oxo-2H-chromen-3-yl)methylene)-[2,2′-binaphthalene]-7,7′(8H,8′H)-dione], for which the values for the IC50 in experiment [1] (setting [5]), in experiment [2] (setting [6]) and in experiment [3] (setting [7]) were more than 100 µM, 54.3 ± 2.85 µM and more than 100 µM, respectively.
`Cc1cc2c(c(O)c1-c1c(C)cc3c(c1O)/C(=C/c1c(O)c4ccccc4oc1=O)C(=O)C(O)=C3C(C)C)/C(=C/c1c(O)c3ccccc3oc1=O)C(=O)C(O)=C2C(C)C` [Compound B-1, (8Z,8′Z)-1,1′,6,6′-tetrahydroxy-8,8′-bis((4-hydroxy-2-oxo-2H-chromen-3-yl)methylene)-5,5′-diisopropyl-3,3′-dimethyl-[2,2′-binaphthalene]-7,7′(8H,8′H)-dione]: the IC50 in experiment [1] (setting [5]) is 22.3 ± 0.9 µM; in experiment [2] (setting [6]), 26.9 ± 1.35 µM; in experiment [3] (setting [7]) it was 15.2 ± 0.34 µM. Further, the “antitumor activities (verbal summary)” value in experiment [4] was “good antitumor activities”.
For the molecule `COc1cccc2c(O)c(/C=C3\C(=O)C(O)=C(C(C)C)c4cc(C)c(-c5c(C)cc6c(C(C)C)c(O)c(O)c(C=O)c6c5O)c(O)c43)c(=O)oc12` [Compound A-4, (Z)-1,1′,6,6′,7-pentahydroxy-8′-((4-hydroxy-8-methoxy-2-oxo-2H-chromen-3-yl)methylene)-5,5′-diisopropyl-3,3′-dimethyl-7′-oxo-7′,8′-dihydro-[2,2′-binaphthalene]-8-carbaldehyde], the IC50 in experiment [1] (setting [5]) was determined as 43.4 ± 1.21 µM; in experiment [2] (setting [6]) it was 31.2 ± 1.33 µM; in experiment [3] (setting [7]) it was 26.5 ± 1.02 µM.
Taken in the same sequence, the figures for `COc1cccc2c(O)c(/C=C3\C(=O)C(O)=C(C(C)C)c4cc(C)c(-c5c(C)cc6c(c5O)/C(=C/c5c(O)c7cccc(OC)c7oc5=O)C(=O)C(O)=C6C(C)C)c(O)c43)c(=O)oc12` [Compound B-4, (8Z,8′Z)-1,1′,6,6′-tetrahydroxy-8,8′-bis((4-hydroxy-8-methoxy-2-oxo-2H-chromen-3-yl)methylene)-5,5′-diisopropyl-3,3′-dimethyl-[2,2′-binaphthalene]-7,7′(8H,8′H)-dione] were 38.4 ± 0.79 µM, 40 ± 1.43 µM and 22.4 ± 0.58 µM.
Taken in the same sequence, the figures for `Cc1cc(C)c2c(O)c(/C=C3\C(=O)C(O)=C(C(C)C)c4cc(C)c(-c5c(C)cc6c(C(C)C)c(O)c(O)c(C=O)c6c5O)c(O)c43)c(=O)oc2c1` [Compound A-6, (Z)-1,1′,6,6′,7-pentahydroxy-8′-((4-hydroxy-5,7-dimethyl-2-oxo-2H-chromen-3-yl)methylene)-5,5′-diisopropyl-3,3′-dimethyl-7′-oxo-7′,8′-dihydro-[2,2′-binaphthalene]-8-carbaldehyde] were more than 100 µM, 32.6 ± 1.81 µM and 42.1 ± 1.04 µM.
